Assay results reported in publication PMC9027532, “Preclinical Pharmacokinetic Studies of a Novel Diuretic Inhibiting Urea Transporters” (Molecules, 2022).
Where two headings read alike, the source gives them in different places.

Experiment: Tissue distribution study in rats
Assay type: in vivo, SD rats
Settings: male, Sprague-Dawley, rat, single oral dose 100 mg/kg; for Kp: read-out: Kp (tissue plasma distribution coefficient)
From the text: Compound 25a was extensively distributed in most tissues of rats, and the drug concentration was high in organs with abundant hemoperfusions, such as the kidney, heart, lung, and spleen, among which the drug concentration was the highest in the kidney, with a tissue plasma distribution coefficient Kp = 1.67. The high kidney distribution is a good characteristic for diuretics targeting UTs, because the UTs in the renal inner medullary collecting duct (UT-A1/3) and renal vasa recta microvessels (UT-B) play vital roles in urea recycling and urine concentration. […] Thus, the potential risk of 25a for the central nervous system and male reproductive system is probably low.
Twenty-four SD rats were randomly divided into six groups and received a single oral dose of 25a at 100 mg/kg. Blood and tissues samples (i.e., brain, heart, lungs, liver, spleen, kidneys, muscle, skin, fat, testes, and leg bones) were collected at 0.25 h, 0.5 h, 2 h, 6 h, 12 h, and 24 h after dosing. The tissue samples were rinsed with cold saline and dried on filter papers, weighed, and homogenized with fivefold volumes of ultrapure water using a homogenizer (T10, IKA, Staufen, Germany) on ice. The right shin bone of the rat was crushed and soaked in methanol for 12 h at 4 °C. Tissue homogenate or bone soak solution was prepared and analyzed using the above method. Samples were stored at −80 °C until analysis.

[1] = plasma (tissue distribution study)

Compound `CC(=O)Nc1ccc(NC(=O)c2ccc(C(C)=O)o2)cc1` [Compound 25a, N-(4-acetamidophenyl)-5-acetylfuran-2-carboxamide] has an AUC(0-t) (bone) of 2680 ± 660 ng·h/mL, a Cmax (bone) of 413 ± 150 ng/mL and a Tmax (bone) of 1.1 ± 0.9 h. The half-life (bone) was 3.7 ± 0.5 h, the Kp (bone) was 0.4 and the AUC(0-t) (brain) was 1390 ± 602 ng·h/mL. For the same compound, the Cmax (brain) was 820 ± 769 ng/mL, the Tmax (brain) was 0.9 ± 0.6 h and the half-life (brain) was 6.1 ± 2.8 h. For the same compound, the Kp (brain) was 0.27, the AUC(0-t) (fat) was 1570 ± 650 ng·h/mL and the Cmax (fat) was 333 ± 238 ng/mL. For the same compound, the Tmax (fat) was 1.3 ± 0.8 h, the half-life (fat) was 6.6 ± 4.2 h and the Kp (fat) was 0.31. The AUC(0-t) (heart) was 4160 ± 1010 ng·h/mL, the Cmax (heart) was 631 ± 64.8 ng/mL and the Tmax (heart) was 0.8 ± 0.7 h. For the same compound, the half-life (heart) was 3.5 ± 0.6 h, the Kp (heart) was 0.8 and the AUC(0-t) (kidney) was 8670 ± 1510 ng·h/mL. The Cmax (kidney) was 1480 ± 473 ng/mL, the Tmax (kidney) was 0.4 ± 0.1 h and the half-life (kidney) was 4.2 ± 0.8 h. The Kp (kidney) was 1.67, the AUC(0-t) (liver) was 1650 ± 1000 ng·h/mL and the Cmax (liver) was 183 ± 144 ng/mL. For the same compound, the Tmax (liver) was 3.6 ± 2.5 h, the half-life (liver) was 6.3 ± 3.4 h and the Kp (liver) was 0.22. For the same compound, the AUC(0-t) (lung) was 3720 ± 880 ng·h/mL, the Cmax (lung) was 1130 ± 1010 ng/mL and the Tmax (lung) was 0.4 ± 0.1 h. It also gave a half-life (lung) of 3.6 ± 0.7 h, a Kp (lung) of 0.72 and an AUC(0-t) (muscle) of 4000 ± 790 ng·h/mL. It also gave a Cmax (muscle) of 728 ± 216 ng/mL, a Tmax (muscle) of 0.8 ± 0.7 h and a half-life (muscle) of 3.2 ± 0.4 h. It also gave a Kp (muscle) of 0.79, an AUC(0-t) [1] of 5200 ± 1590 ng·h/mL and a Cmax [1] of 1120 ± 132 ng/mL. It also gave a Tmax [1] of 0.3 h, a half-life [1] of 5.7 ± 4.8 h and a Kp [1] of 1. It also gave an AUC(0-t) (skin) of 4830 ± 1080 ng·h/mL, a Cmax (skin) of 701 ± 124 ng/mL and a Tmax (skin) of 2.6 ± 2.1 h. It also gave a half-life (skin) of 3.6 ± 0.5 h, a Kp (skin) of 0.93 and an AUC(0-t) (spleen) of 4270 ± 2630 ng·h/mL. The Cmax (spleen) was 934 ± 793 ng/mL, the Tmax (spleen) was 0.9 ± 0.6 h and the half-life (spleen) was 4.5 ± 0.8 h. The Kp (spleen) was 0.82, the AUC(0-t) (testis) was 338 ± 144 ng·h/mL and the Cmax (testis) was 50.6 ± 26.4 ng/mL. For the same compound, the Tmax (testis) was 6 h and the Kp (testis) was 0.06.
